Measurements published in ChEMBL document CHEMBL1909046, “DrugMatrix in vitro pharmacology data”.

Assays:
Adenosine receptor A2a = Adenosine receptor A2a (Homo sapiens, UniProt P29274); assay: DRUGMATRIX: Adenosine A2A radioligand binding (ligand: […]); assay type: cell membranes, Membrane; conditions: hek293; Not Active = under 50% inhibition at 10 µM
Endothelin-1 receptor = target: T1, Endothelin-1 receptor (Homo sapiens, UniProt P25101); assay type: cell membranes, CHO-K1, Membrane; conditions: cho-k1; note: in other assays of this panel Not Active means under 50% inhibition at 10 µM
T1 sequence (P25101 whole entry): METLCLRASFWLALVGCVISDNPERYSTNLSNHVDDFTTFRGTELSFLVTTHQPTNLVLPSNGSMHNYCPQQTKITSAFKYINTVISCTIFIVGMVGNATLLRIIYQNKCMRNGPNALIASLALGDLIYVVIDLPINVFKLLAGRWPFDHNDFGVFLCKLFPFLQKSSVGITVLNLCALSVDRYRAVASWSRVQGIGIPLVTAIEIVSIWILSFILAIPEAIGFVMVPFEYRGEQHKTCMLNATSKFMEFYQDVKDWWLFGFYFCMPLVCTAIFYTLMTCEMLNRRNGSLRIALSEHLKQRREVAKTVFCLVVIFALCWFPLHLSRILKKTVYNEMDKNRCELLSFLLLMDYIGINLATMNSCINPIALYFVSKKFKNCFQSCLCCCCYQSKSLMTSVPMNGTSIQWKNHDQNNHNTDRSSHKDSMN

[1] = target: T2, 5-hydroxytryptamine receptor 1A (Rattus norvegicus, UniProt P19327); assay type: cell membranes, CHO-K1, Membrane; conditions: for Ki: read-out: Ki; for all read-outs here: in other assays of this panel Not Active means under 50% inhibition at 10 µM
T2 sequence (P19327 whole entry): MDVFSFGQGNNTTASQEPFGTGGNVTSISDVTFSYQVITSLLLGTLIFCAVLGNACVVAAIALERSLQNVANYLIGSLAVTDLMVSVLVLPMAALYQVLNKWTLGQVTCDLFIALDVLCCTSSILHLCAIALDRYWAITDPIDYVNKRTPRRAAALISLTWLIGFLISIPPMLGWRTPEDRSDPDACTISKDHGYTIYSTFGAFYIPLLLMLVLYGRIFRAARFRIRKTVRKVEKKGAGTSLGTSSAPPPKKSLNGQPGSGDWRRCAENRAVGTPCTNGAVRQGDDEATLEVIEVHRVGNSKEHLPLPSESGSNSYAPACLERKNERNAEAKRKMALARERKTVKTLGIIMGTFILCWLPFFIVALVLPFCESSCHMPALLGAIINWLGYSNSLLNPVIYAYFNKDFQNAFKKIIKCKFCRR

[2] = target: Receptor tyrosine-protein kinase erbB-2 (Homo sapiens, UniProt P04626); assay: biochemical; assay type: cell-based, Insect cells;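 note: inhibition of HER2 kinase enzyme activity, measured with Poly(Glu:Tyr) as the phosphorylation substrate; in other assays of this panel Not Active means under 50% inhibition at 10 µM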
Estrogen receptor = target: T3, Estrogen receptor (Homo sapiens, UniProt P03372); conditions: sf9; note: in other assays of this panel Not Active means under 50% inhibition at 10 µM
T3 sequence (P03372 whole entry): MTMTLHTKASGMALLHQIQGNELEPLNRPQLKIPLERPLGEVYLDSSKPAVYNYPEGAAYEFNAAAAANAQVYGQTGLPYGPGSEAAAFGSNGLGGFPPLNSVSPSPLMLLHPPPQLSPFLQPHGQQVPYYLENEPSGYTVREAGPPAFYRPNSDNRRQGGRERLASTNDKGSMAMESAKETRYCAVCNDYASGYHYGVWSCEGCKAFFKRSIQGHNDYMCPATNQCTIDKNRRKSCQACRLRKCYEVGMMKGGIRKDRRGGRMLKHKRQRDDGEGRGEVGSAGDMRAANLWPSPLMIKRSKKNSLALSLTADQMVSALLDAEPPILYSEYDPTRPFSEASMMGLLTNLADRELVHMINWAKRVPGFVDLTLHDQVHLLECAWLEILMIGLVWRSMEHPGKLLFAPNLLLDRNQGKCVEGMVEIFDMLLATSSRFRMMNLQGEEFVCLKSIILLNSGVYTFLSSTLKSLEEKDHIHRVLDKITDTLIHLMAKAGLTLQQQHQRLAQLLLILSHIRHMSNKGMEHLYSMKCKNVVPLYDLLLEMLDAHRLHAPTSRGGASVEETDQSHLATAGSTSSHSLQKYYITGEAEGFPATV

[3] = target: T4, Angiotensin-converting enzyme (Oryctolagus cuniculus, UniProt P12822); assay type: tissue-based, Lung
T4 sequence (P12822 whole entry): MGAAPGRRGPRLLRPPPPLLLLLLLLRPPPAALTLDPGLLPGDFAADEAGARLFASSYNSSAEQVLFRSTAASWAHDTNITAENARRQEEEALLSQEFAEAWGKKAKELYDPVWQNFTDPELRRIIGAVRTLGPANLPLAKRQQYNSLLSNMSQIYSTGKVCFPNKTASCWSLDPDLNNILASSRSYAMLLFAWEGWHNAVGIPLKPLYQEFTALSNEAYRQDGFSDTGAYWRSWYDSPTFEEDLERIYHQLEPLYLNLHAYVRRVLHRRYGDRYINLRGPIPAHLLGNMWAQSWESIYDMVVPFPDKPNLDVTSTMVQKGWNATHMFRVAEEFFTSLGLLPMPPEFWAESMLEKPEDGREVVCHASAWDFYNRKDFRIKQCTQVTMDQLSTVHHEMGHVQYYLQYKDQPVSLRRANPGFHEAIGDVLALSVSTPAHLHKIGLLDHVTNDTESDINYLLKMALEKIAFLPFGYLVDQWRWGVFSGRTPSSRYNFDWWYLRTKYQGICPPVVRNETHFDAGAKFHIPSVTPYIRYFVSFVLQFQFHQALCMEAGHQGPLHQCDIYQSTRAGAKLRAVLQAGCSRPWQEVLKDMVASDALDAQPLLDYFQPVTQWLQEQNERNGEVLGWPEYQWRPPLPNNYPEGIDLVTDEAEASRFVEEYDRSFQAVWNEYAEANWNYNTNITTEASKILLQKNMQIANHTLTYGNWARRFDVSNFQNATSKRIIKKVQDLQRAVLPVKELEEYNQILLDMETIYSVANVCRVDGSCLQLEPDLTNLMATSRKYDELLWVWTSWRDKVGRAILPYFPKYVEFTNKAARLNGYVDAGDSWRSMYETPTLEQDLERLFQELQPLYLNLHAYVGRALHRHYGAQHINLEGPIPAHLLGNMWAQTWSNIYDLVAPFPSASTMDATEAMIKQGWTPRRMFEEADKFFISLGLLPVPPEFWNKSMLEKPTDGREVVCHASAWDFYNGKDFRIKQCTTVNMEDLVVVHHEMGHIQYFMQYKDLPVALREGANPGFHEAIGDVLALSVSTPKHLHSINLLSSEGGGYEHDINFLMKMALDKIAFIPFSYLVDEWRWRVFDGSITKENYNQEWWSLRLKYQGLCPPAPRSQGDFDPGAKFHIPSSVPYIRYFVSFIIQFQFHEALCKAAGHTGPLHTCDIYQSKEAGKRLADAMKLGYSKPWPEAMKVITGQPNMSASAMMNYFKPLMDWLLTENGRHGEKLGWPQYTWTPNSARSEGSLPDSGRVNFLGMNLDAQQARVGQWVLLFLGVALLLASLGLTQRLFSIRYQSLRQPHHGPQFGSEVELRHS

Mu-type opioid receptor = Mu-type opioid receptor (Homo sapiens, UniProt P35372); assay: DRUGMATRIX: Opiate mu (OP3, MOP) radioligand binding (ligand: [3H] Diprenorphine); assay type: cell membranes, CHO-K1, Membrane; conditions: Not Active = under 50% inhibition at 10 µM
Sequence of Mu-type opioid receptor (P35372 whole entry): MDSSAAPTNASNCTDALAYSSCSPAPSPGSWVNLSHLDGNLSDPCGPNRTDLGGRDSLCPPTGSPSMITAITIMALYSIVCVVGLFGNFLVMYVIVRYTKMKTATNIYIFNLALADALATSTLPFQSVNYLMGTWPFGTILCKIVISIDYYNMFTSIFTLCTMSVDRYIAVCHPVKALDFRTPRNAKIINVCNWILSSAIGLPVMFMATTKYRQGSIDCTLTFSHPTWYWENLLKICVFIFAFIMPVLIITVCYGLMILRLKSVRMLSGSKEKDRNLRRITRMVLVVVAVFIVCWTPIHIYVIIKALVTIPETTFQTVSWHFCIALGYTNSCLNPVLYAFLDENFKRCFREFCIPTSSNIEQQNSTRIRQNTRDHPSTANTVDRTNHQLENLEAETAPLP

Sequence of Adenosine receptor A2a (P29274 whole entry): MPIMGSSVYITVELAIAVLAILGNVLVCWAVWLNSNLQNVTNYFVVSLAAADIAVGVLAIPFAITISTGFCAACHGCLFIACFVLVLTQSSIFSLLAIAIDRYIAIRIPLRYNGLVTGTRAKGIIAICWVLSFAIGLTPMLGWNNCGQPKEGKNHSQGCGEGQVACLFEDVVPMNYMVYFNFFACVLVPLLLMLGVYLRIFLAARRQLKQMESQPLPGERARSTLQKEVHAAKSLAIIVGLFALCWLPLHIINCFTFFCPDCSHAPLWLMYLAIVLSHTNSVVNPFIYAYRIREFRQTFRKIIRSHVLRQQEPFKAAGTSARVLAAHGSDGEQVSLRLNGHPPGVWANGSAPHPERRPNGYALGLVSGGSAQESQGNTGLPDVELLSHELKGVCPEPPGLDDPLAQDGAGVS
Sequence of Receptor tyrosine-protein kinase erbB-2 (P04626 whole entry): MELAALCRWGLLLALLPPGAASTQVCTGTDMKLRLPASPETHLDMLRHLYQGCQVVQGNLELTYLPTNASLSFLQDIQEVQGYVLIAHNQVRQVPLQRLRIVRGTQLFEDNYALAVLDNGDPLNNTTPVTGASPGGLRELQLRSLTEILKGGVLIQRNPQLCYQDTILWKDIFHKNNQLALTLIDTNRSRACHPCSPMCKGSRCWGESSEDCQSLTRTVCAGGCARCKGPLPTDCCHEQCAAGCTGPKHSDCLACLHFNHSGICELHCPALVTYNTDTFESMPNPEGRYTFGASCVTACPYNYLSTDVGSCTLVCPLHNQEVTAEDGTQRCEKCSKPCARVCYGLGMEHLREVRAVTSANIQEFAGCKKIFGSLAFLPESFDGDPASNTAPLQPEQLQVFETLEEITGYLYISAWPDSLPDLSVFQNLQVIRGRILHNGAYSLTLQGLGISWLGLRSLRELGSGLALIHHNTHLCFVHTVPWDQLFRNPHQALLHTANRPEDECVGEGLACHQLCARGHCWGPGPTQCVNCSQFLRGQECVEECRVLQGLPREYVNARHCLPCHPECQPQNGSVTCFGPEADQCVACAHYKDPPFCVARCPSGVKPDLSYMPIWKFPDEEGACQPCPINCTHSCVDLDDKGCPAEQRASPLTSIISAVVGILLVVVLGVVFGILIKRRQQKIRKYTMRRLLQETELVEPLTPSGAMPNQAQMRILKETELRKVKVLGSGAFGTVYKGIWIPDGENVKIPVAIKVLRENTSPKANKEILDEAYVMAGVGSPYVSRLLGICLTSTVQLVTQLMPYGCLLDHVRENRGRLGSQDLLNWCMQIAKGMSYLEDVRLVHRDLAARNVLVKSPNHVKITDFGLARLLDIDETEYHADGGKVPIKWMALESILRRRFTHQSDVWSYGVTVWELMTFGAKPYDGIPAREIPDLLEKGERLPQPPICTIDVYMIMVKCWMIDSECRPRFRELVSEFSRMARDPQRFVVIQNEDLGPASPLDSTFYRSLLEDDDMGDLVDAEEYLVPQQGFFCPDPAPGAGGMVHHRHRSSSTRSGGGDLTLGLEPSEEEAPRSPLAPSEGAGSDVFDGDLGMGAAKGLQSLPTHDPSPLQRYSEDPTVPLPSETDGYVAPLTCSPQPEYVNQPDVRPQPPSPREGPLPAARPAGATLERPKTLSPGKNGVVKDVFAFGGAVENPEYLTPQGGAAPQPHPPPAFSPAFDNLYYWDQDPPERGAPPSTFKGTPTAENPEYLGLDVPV

Structure (SMILES) | IC50 (Adenosine receptor A2a) | IC50 (Endothelin-1 receptor) | IC50 ([1]; cho-k1) | IC50 ([2]; insect cells) | IC50 (Estrogen receptor) | IC50 [3] | IC50 (Mu-type opioid receptor; cho-k1) | IC50 ([2]; read-out: IC50) [nM] | IC50 ([1]; read-out: IC50) [nM] | Ki [1] [nM] | Ki (Mu-type opioid receptor) [nM] | IC50 (Mu-type opioid receptor; read-out: IC50) [nM]
CC1(C)O[C@@H]2C[C@H]3[C@@H]4CCC5=CC(=O)CC[C@]5(C)[C@@]4(F)[C@@H](O)C[C@]3(C)[C@]2(C(=O)CCl)O1 [HALCINONIDE] | Not Active | Not Active | Not Active | Not Active | Not Active | Not Active | Not Active |  |  |  |  | 
Cc1cc(C(C#N)c2ccc(Cl)cc2)c(Cl)cc1NC(=O)c1cc(I)cc(I)c1O (stereo not drawn) [CLOSANTEL] | Not Active | Not Active | Not Active |  | Not Active | Not Active | Not Active | 2470 |  |  |  | 
Cc1onc(-c2ccccc2Cl)c1C(=O)N[C@@H]1C(=O)N2[C@@H]1SC(C)(C)[C@@H]2C(=O)O [CLOXACILLIN] | Not Active | Not Active | Not Active | Not Active | Not Active | Not Active | Not Active |  |  |  |  | 
CNCCCN1c2ccccc2CCc2ccccc21 [DESIPRAMINE] | Not Active | Not Active | Not Active | Not Active | Not Active | Not Active | Not Active |  |  |  |  | 
C[C@]12CCC(=O)C=C1CC[C@@H]1[C@@H]2CC[C@@]2(C)[C@H]1CC[C@]2(C)O [METHYLTESTOSTERONE] | Not Active | Not Active | Not Active | Not Active | Not Active | Not Active | Not Active |  |  |  |  | 
Nc1ncn([C@@H]2O[C@H](CO)[C@@H](O)[C@H]2O)c(=O)n1 [AZACITIDINE] | Not Active | Not Active | Not Active | Not Active | Not Active | Not Active | Not Active |  |  |  |  | 
O=C(CCCN1CC=C(n2c(=O)[nH]c3ccccc32)CC1)c1ccc(F)cc1 [DROPERIDOL] | Not Active | Not Active |  | Not Active | Not Active | Not Active | Not Active |  | 242 | 138 |  | 
CC1CC(OC(=O)C(O)c2ccccc2)CC(C)(C)C1 (stereo not drawn) [CYCLANDELATE] | Not Active | Not Active | Not Active | Not Active | Not Active | Not Active | Not Active |  |  |  |  | 
c1ccc2c(c1)c1cccc3ccc4cccc2c4c31 [BENZO[E]PYRENE] | Not Active | Not Active | Not Active | Not Active | Not Active | Not Active | Not Active |  |  |  |  | 
CC(C)[C@@]1(NC(=O)[C@@H]2C[C@@H]3c4cccc5[nH]cc(c45)C[C@H]3N(C)C2)O[C@@]2(O)[C@@H]3CCCN3C(=O)[C@H](Cc3ccccc3)N2C1=O.CS(=O)(=O)O [DIHYDROERGOCRISTINE MESYLATE] | Not Active | Not Active |  | Not Active | Not Active | Not Active |  |  | 0.722 | 0.412 | 345 | 850
CC[C@@]1(O)C[C@H](O[C@H]2C[C@H](N(C)C)[C@H](O[C@H]3C[C@H](O)[C@H](O[C@H]4CCC(=O)[C@H](C)O4)[C@H](C)O3)[C@H](C)O2)c2c(cc3c(c2O)C(=O)c2c(O)cccc2C3=O)[C@H]1C(=O)OC [ACLARUBICIN] | Not Active | Not Active | Not Active | Not Active | Not Active | Not Active | Not Active |  |  |  |  | 
CCn1cc(C(=O)O)c(=O)c2cc(F)c(N3CCNCC3)cc21 [NORFLOXACIN] | Not Active | Not Active | Not Active | Not Active | Not Active | Not Active | Not Active |  |  |  |  | 
Cc1c(O)c(=O)ccn1C [DEFERIPRONE] | Not Active | Not Active | Not Active | Not Active | Not Active | Not Active | Not Active |  |  |  |  | 
Sc1ncnc2nc[nH]c12 [MERCAPTOPURINE ANHYDROUS] | Not Active | Not Active | Not Active | Not Active | Not Active | Not Active | Not Active |  |  |  |  | 
CC(C)C(=O)Nc1ccc([N+](=O)[O-])c(C(F)(F)F)c1 [FLUTAMIDE] | Not Active | Not Active | Not Active | Not Active | Not Active | Not Active | Not Active |  |  |  |  | 
